Experimental data reported in paper PMC11233931, “Remodeling tumor‐associated macrophage for anti‐cancer effects by rational design of irreversible inhibition of mitogen‐activated protein kinase‐activated protein kinase 2” (MedComm, 2024).

Tests used:
Experiment in all cases: Eurofins kinase selectivity profile against 380 other human recombinant kinases (Table S2)
Assay type in all cases: biochemical
[1] = target: T1, 380 human recombinant protein kinases (Homo sapiens, UniProt P30530); details: Axl(h), read-out: Inhibition rate
T1 construct: purchased Eurofins (Celle Lévescault)
T1 sequence (P30530 26-894): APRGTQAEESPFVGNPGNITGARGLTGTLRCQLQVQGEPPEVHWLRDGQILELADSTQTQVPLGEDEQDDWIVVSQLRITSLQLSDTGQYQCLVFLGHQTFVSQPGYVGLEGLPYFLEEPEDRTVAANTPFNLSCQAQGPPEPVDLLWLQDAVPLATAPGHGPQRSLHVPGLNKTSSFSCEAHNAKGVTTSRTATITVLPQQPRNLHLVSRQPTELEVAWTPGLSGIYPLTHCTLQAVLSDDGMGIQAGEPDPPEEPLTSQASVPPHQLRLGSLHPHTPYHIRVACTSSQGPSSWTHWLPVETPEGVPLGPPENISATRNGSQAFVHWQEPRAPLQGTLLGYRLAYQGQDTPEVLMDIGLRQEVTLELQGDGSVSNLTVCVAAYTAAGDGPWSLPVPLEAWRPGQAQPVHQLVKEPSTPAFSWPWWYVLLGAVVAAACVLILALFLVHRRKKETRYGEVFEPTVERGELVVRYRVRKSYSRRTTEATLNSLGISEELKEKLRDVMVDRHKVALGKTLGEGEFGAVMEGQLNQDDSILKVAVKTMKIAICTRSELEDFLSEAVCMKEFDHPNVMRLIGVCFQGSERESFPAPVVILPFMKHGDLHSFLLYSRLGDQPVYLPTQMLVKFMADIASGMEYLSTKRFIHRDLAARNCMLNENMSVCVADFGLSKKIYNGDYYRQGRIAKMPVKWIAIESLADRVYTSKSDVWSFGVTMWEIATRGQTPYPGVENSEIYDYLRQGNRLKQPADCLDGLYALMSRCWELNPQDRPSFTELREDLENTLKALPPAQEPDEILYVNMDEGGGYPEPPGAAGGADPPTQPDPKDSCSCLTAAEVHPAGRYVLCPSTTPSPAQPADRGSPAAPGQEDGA
In short: (§1)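 Profiling against 380 human recombinant kinases carried out by Eurofins at various compound concentrations.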

[2] = target: T2, 380 human recombinant protein kinases (Homo sapiens, UniProt P52333); details: JAK3(h), read-out: Inhibition rate
T2 construct: purchased Eurofins (Celle Lévescault)
T2 sequence (P52333 1-1124): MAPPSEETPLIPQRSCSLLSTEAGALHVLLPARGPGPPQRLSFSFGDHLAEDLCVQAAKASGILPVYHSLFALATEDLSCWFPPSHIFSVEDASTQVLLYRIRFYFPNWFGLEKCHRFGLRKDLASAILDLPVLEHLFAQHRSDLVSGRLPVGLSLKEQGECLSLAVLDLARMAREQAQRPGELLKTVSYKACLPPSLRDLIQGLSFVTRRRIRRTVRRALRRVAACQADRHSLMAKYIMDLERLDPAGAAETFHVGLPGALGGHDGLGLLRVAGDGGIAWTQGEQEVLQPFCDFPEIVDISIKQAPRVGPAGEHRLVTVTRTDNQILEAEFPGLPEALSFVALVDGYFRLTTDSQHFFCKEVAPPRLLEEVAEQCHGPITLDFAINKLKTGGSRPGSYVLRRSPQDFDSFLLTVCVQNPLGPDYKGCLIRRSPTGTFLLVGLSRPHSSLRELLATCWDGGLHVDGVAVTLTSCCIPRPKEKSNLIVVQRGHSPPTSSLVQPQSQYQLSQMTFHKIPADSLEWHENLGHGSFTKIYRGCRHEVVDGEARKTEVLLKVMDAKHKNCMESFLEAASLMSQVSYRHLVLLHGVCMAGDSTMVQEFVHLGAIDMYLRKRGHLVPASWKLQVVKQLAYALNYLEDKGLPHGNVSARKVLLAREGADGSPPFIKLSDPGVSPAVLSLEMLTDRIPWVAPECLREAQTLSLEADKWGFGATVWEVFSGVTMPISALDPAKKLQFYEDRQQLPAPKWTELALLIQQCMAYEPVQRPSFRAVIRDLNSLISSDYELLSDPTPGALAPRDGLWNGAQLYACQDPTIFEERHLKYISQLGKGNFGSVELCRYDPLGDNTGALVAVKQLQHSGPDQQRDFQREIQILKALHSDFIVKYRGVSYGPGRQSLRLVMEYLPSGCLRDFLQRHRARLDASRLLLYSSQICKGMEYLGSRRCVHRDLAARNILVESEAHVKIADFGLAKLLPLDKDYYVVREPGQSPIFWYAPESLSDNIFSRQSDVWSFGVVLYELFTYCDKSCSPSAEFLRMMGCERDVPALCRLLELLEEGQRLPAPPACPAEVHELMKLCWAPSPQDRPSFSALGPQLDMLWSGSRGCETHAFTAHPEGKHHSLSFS
In short: as §1

[3] = target: T3, 380 human recombinant protein kinases (Homo sapiens, UniProt Q9HBY8); details: SGK2(h), read-out: Inhibition rate (%)
T3 construct: purchased Eurofins (Celle Lévescault)
T3 sequence (Q9HBY8 1-367): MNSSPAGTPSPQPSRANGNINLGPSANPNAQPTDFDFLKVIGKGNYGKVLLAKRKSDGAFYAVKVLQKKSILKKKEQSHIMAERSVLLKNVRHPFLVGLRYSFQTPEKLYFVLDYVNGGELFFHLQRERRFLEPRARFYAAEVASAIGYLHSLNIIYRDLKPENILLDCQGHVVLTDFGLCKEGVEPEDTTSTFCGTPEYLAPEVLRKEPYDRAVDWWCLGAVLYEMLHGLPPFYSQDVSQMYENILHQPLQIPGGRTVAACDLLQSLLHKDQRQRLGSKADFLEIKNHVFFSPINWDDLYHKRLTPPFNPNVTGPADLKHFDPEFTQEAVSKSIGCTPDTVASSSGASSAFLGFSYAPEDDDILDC
In short: as §1

[4] = target: T4, 380 human recombinant protein kinases (Homo sapiens, UniProt Q9C098); details: DCAMKL3(h), read-out: Inhibition rate
T4 construct: purchased Eurofins (Celle Lévescault)
T4 sequence (Q9C098 whole entry): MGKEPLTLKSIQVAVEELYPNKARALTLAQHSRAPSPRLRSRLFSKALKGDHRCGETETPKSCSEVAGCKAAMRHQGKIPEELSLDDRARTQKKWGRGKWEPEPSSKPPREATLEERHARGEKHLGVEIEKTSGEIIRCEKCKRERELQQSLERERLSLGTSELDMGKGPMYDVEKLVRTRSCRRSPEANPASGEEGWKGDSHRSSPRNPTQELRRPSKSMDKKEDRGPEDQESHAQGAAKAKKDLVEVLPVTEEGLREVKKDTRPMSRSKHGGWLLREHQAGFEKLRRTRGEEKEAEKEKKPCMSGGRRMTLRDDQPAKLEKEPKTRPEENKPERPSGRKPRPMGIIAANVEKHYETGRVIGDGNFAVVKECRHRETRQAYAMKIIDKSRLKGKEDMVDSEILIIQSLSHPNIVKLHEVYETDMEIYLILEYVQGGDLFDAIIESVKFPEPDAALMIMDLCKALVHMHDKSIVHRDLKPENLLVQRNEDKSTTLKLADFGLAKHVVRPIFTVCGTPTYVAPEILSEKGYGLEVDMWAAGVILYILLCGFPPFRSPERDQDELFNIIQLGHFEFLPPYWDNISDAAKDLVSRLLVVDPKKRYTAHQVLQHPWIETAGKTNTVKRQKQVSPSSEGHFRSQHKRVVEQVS
In short: as §1

C=CC(=O)Nc1cc(-c2cc(-c3cc4c([nH]3)CCNC4=O)ccn2)ccc1OC(F)(F)F [compound 11]
inhibition at 0.01 µM ([1]; 10 nM): -21% | inhibition at 0.1 µM ([1]; 100 nM): -6% | inhibition at 1 µM ([1]; 1000 nM): 26% | inhibition at 0.01 µM ([2]; 10 nM): 8% | inhibition at 0.1 µM ([2]; 100 nM): 5% | inhibition at 1 µM ([2]; 1000 nM): 12% | inhibition at 0.01 µM ([3]; 10 nM): -10% | inhibition at 0.1 µM ([3]; 100 nM): -7% | inhibition at 1 µM ([3]; 1000 nM): 0% | inhibition at 0.01 µM ([4]; 10 nM): -1% | inhibition at 0.1 µM ([4]; 100 nM): 6% | inhibition at 1 µM ([4]; 1000 nM): 26%
